Measurements published in PMC5008228 (Journal of Parkinson's Disease, 2016).
Values joined by “and” are separate entries in the source; they are usually repeats but may differ in a detail not shown here. Equal values may be shown once.

Columns and labels:
Assay type in all cases: in vivo, human
PDD or DLB participants [1] = assay: Unified Parkinson's Disease Rating Scale; settings: for UPDRS-I-IV score / UPDRS-III score: individual participants; for Average decrease in UPDRS-III (motor): week 24 compared to baseline; for UPDRS-III score, AVG: group AVG (Screening AVG 30.6)
PDD or DLB participants [2] = assay: Mini Mental State Examination; settings: for MMSE score: individual participants; for Average increase in MMSE: six months (24-week) compared to baseline
DJ-1 = assay: Neurodegenerative disease magnetic bead panel, DJ-1
homovanillic acid (HVA) = assay: HVA measurement by ELISA
PDD or DLB participants [3] = assay: QTc interval by EKG; settings: returned to normal range in subsequent visits

Cc1cn(-c2cc(NC(=O)c3ccc(C)c(Nc4nccc(-c5cccnc5)n4)c3)cc(C(F)(F)F)c2)cn1 [Nilotinib]
UPDRS-I-IV score, AVG (PDD or DLB participants [1]; 150 mg oral daily, Week-24, group AVG (Screening AVG 72.60)): 65.60 | UPDRS-I-IV score (PDD or DLB participants [1]; 150 mg oral daily, Week-24): 44 and 83 and 53 and 40 | UPDRS-III score (PDD or DLB participants [1]; 150 mg oral daily, Week-24): 23 and 60 and 42 and 29 and 18 | Average decrease in UPDRS I-IV (PDD or DLB participants [1]; 150 mg oral daily, at 6 months): 7 points | Average decrease in UPDRS-III (motor) (PDD or DLB participants [1]; 150 mg oral daily): 3.4 points | UPDRS-III score, AVG (PDD or DLB participants [1]; 300 mg oral daily, Week-4): 28 | UPDRS-I-IV score, AVG (PDD or DLB participants [1]; 300 mg oral daily, Week-4, group AVG (Screening AVG 62.5)): 60.8 | UPDRS-I-IV score (PDD or DLB participants [1]; 300 mg oral daily, Week-4): 31 and 45 and 21 and 49 and 116 and 103 | UPDRS-III score (PDD or DLB participants [1]; 300 mg oral daily, Week-4): 11 and 14 and 7 and 22 and 67 and 47 | UPDRS-III score, AVG (PDD or DLB participants [1]; 300 mg oral daily, Week-8): 28 | UPDRS-I-IV score, AVG (PDD or DLB participants [1]; 300 mg oral daily, Week-8, group AVG (Screening AVG 62.5)): 60.3 | UPDRS-I-IV score (PDD or DLB participants [1]; 300 mg oral daily, Week-8): 28 and 41 and 25 and 45 and 118 and 105 | UPDRS-III score (PDD or DLB participants [1]; 300 mg oral daily, Week-8): 9 and 11 and 18 and 70 and 49 | UPDRS-III score, AVG (PDD or DLB participants [1]; 300 mg oral daily, Week-12): 26.6 | UPDRS-I-IV score, AVG (PDD or DLB participants [1]; 300 mg oral daily, Week-12, group AVG (Screening AVG 62.5)): 57.3 | UPDRS-I-IV score (PDD or DLB participants [1]; 300 mg oral daily, Week-12): 26 and 41 and 19 and 46 and 115 and 97 | UPDRS-III score (PDD or DLB participants [1]; 300 mg oral daily, Week-12): 9 and 11 and 8 and 18 and 67 and 47 | UPDRS-III score, AVG (PDD or DLB participants [1]; 300 mg oral daily, Week-16): 27.8 | UPDRS-I-IV score, AVG (PDD or DLB participants [1]; 300 mg oral daily, Week-16, group AVG (Screening AVG 62.5)): 58.8 | UPDRS-I-IV score (PDD or DLB participants [1]; 300 mg oral daily, Week-16): 33 and 46 and 17 and 49 and 113 and 95 | UPDRS-III score (PDD or DLB participants [1]; 300 mg oral daily, Week-16): 13 and 16 and 6 and 21 and 67 and 44 | UPDRS-III score, AVG (PDD or DLB participants [1]; 300 mg oral daily, Week-20): 26.8 | UPDRS-I-IV score, AVG (PDD or DLB participants [1]; 300 mg oral daily, Week-20, group AVG (Screening AVG 62.5)): 55.3 | UPDRS-I-IV score (PDD or DLB participants [1]; 300 mg oral daily, Week-20): 23 and 41 and 16 and 54 and 106 and 92 | UPDRS-III score (PDD or DLB participants [1]; 300 mg oral daily, Week-20): 7 and 16 and 21 and 69 and 41 | UPDRS-III score, AVG (PDD or DLB participants [1]; 300 mg oral daily, Week-24): 27 | UPDRS-I-IV score, AVG (PDD or DLB participants [1]; 300 mg oral daily, Week-24, group AVG (Screening AVG 62.5)): 51.6 | UPDRS-I-IV score (PDD or DLB participants [1]; 300 mg oral daily, Week-24): 20 and 28 and 15 and 45 and 107 and 95 | UPDRS-III score (PDD or DLB participants [1]; 300 mg oral daily, Week-24): 9 and 12 and 6 and 21 and 70 and 44 | Average decrease in UPDRS-III (motor) (PDD or DLB participants [1]; 300 mg oral daily): 3.6 points | MMSE score, AVG (PDD or DLB participants [2]; 300 ng (sub-heading as printed) oral daily, Week-4, group AVG (Screening AVG 17)): 20.3 | MMSE score (PDD or DLB participants [2]; 300 ng (sub-heading as printed) oral daily, Week-4): 27 and 28 and 24 and 5 and 10 | MMSE score, AVG (PDD or DLB participants [2]; 300 ng (sub-heading as printed) oral daily, Week-8, group AVG (Screening AVG 17)): 18.1 | MMSE score (PDD or DLB participants [2]; 300 ng (sub-heading as printed) oral daily, Week-8): 28 and 23 and 24 and 2 and 8 | MMSE score (PDD or DLB participants [2]; 300 ng (sub-heading as printed) oral daily, Week-12): 29 and 26 and 25 and 28 and 1 and 6 | MMSE score (PDD or DLB participants [2]; 300 ng (sub-heading as printed) oral daily, Week-16): 27 and 29 and 25 and 14 and 6 and 12 | MMSE score (PDD or DLB participants [2]; 300 ng (sub-heading as printed) oral daily, Week-20): 26 and 30 and 25 and 24 and 2 and 6 | MMSE score (PDD or DLB participants [2]; 300 ng (sub-heading as printed) oral daily, Week-24): 28 and 30 and 25 and 26 and 5 and 9 | MMSE score, AVG (PDD or DLB participants [2]; 150 mg oral daily, Week-4, group AVG (Screening AVG 15.4)): 17.4 | MMSE score (PDD or DLB participants [2]; 150 mg oral daily, Week-4): 20 and 0 and 11 and 28 | MMSE score, AVG (PDD or DLB participants [2]; 150 mg oral daily, Week-8, group AVG (Screening AVG 15.4)): 18 | MMSE score (PDD or DLB participants [2]; 150 mg oral daily, Week-8): 22 and 1 and 11 and 29 and 27 | MMSE score, AVG (PDD or DLB participants [2]; 150 mg oral daily, Week-12, group AVG (Screening AVG 15.4)): 18 | MMSE score (PDD or DLB participants [2]; 150 mg oral daily, Week-12): 21 and 1 and 11 and 29 and 28 | MMSE score, AVG (PDD or DLB participants [2]; 150 mg oral daily, Week-16, group AVG (Screening AVG 15.4)): 18.6 | MMSE score (PDD or DLB participants [2]; 150 mg oral daily, Week-16): 26 and 1 and 8 and 30 and 28 | MMSE score, AVG (PDD or DLB participants [2]; 150 mg oral daily, Week-20, group AVG (Screening AVG 15.4)): 18.4 | MMSE score (PDD or DLB participants [2]; 150 mg oral daily, Week-20): 26 and 1 and 10 and 30 and 25 | MMSE score, AVG (PDD or DLB participants [2]; 150 mg oral daily, Week-24, group AVG (Screening AVG 15.4)): 19.25 | MMSE score (PDD or DLB participants [2]; 150 mg oral daily, Week-24): 23 and 2 and 29 | Average increase in MMSE (PDD or DLB participants [2]; 150 mg oral daily): 3.85 points | Average increase in MMSE (PDD or DLB participants [2]; 300 mg oral daily): 3.5 points | CSF DJ-1 (DJ-1; 150 mg group): trended towards a decrease | CSF DJ-1 vs baseline (DJ-1; 300 mg group, six months): significantly reduced | CSF homovanillic acid (HVA) vs baseline (homovanillic acid (HVA); 150 mg group, 2 months, t-test): significantly increased | CSF homovanillic acid (HVA) vs baseline (homovanillic acid (HVA); 150 mg group, 6 months): remained elevated (non-significant) | CSF homovanillic acid (HVA) vs baseline (homovanillic acid (HVA); 300 mg group, 6 months): significantly increased | QTc finding in participant NIL 8 (PDD or DLB participants [3]; 150 mg group): slight QTc prolongation >450 ms at week 8 | QTc finding in participant NIL 15 (PDD or DLB participants [3]; 300 mg group): two episodes of QTc prolongation >450 ms at week 2 and week 8
